What was measured:
[1] = target: Gamma-aminobutyric acid receptor subunit alpha-1 (Rattus norvegicus, UniProt P62813)
[2] = target: T1, Muscarinic acetylcholine receptor M1 (Homo sapiens, UniProt P11229); assay type: functional
T1 sequence (P11229 whole entry): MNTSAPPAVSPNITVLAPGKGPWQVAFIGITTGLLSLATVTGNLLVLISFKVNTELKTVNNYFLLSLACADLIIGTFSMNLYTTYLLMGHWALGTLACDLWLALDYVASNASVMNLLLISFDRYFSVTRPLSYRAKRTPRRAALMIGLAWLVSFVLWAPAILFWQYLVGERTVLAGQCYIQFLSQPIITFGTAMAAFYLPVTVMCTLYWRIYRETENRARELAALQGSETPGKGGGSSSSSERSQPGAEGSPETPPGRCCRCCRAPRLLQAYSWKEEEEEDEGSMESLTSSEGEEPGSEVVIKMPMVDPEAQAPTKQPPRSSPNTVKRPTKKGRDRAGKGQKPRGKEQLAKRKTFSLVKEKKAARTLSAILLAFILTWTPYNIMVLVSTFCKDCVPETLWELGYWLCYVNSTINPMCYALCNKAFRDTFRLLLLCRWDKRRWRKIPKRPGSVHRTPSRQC

Histamine H1 receptor = Histamine H1 receptor (Homo sapiens, UniProt P35367)
Endothelin-1 receptor = target: T2, Endothelin-1 receptor (Homo sapiens, UniProt P25101)
T2 sequence (P25101 whole entry): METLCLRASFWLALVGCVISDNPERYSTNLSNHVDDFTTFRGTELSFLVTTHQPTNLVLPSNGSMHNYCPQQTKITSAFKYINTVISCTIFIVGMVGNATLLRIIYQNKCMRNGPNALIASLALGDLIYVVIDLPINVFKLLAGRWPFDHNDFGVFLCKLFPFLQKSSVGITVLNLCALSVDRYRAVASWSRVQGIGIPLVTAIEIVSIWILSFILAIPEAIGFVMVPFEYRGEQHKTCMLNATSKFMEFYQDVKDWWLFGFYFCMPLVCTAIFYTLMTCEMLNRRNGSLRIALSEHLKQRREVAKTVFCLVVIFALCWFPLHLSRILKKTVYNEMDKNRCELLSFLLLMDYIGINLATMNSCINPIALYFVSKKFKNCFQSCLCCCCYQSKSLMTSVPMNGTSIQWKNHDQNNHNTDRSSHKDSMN

[3] = target: T3, 5-hydroxytryptamine receptor 1A (Homo sapiens, UniProt P08908)
T3 sequence (P08908 whole entry): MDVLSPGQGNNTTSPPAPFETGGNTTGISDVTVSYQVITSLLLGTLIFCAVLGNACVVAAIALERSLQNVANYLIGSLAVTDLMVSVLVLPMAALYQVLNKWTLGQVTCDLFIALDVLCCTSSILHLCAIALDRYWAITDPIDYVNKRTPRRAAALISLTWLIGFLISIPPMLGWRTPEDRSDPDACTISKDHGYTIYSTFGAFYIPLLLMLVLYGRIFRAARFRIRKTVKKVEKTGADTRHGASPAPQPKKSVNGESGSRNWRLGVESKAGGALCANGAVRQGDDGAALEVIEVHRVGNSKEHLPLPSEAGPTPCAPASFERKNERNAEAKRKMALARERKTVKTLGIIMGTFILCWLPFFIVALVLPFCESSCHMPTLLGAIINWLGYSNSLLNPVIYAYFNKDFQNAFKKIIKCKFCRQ

Cannabinoid receptor 1 = Cannabinoid receptor 1 (Homo sapiens, UniProt P21554); assay type: functional, cell-based
Progesterone receptor = target: T4, Progesterone receptor (Homo sapiens, UniProt P06401)
T4 sequence (P06401 whole entry): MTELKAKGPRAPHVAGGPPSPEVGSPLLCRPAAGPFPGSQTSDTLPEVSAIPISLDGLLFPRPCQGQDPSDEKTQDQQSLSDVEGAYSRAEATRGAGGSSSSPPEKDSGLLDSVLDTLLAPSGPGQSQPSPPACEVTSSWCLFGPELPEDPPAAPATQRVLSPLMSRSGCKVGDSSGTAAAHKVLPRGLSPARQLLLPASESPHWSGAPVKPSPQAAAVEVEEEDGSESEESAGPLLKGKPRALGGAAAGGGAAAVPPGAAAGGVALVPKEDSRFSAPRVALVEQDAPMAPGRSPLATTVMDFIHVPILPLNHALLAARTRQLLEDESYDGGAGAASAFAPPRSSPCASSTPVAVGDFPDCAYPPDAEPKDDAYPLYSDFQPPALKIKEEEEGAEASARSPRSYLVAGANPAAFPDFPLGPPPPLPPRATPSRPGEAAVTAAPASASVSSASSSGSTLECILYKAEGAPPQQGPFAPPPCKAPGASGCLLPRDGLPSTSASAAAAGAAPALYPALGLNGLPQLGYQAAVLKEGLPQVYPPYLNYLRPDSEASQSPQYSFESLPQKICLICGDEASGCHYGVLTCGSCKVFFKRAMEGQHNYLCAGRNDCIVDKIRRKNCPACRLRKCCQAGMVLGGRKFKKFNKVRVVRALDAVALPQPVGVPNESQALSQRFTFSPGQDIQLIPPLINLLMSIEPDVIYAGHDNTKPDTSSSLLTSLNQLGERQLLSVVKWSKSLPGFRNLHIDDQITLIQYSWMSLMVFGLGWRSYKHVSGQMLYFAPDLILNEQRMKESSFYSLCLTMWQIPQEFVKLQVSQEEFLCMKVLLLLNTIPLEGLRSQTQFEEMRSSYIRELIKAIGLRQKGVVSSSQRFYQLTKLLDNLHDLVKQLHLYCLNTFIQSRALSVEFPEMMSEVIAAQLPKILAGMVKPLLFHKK

[4] = target: T3, 5-hydroxytryptamine receptor 1A; assay type: functional, cell-based
[5] = target: Prostaglandin G/H synthase 1 (Homo sapiens, UniProt P23219); assay type: functional
Note: assay procedure not described here.

Sequence of Histamine H1 receptor (P35367 whole entry): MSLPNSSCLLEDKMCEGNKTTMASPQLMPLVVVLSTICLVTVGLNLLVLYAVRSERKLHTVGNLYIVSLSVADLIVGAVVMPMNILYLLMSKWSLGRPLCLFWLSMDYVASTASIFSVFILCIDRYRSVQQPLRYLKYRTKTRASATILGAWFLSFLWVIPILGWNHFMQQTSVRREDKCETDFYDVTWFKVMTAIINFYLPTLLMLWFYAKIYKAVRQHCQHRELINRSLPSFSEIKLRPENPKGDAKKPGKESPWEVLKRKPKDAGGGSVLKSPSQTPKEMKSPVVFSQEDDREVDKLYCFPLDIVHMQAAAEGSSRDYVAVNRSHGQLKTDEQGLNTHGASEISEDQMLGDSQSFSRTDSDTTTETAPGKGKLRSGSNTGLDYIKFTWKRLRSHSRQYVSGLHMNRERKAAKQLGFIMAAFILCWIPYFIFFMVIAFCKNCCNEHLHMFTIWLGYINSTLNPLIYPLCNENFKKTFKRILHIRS
Sequence of Cannabinoid receptor 1 (P21554 whole entry): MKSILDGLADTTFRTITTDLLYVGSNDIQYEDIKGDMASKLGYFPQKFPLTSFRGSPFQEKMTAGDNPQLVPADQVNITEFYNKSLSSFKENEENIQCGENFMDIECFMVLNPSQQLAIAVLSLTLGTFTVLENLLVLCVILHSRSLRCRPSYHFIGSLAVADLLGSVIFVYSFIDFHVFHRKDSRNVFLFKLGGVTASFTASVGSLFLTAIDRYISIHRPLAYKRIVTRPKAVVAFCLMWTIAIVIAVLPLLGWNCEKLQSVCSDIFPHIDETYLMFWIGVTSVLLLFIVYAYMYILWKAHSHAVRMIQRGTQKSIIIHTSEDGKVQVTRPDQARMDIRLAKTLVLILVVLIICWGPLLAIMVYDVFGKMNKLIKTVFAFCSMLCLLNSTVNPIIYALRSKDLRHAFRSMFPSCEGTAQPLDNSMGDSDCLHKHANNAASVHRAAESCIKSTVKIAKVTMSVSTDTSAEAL
Sequence of Prostaglandin G/H synthase 1 (P23219 whole entry): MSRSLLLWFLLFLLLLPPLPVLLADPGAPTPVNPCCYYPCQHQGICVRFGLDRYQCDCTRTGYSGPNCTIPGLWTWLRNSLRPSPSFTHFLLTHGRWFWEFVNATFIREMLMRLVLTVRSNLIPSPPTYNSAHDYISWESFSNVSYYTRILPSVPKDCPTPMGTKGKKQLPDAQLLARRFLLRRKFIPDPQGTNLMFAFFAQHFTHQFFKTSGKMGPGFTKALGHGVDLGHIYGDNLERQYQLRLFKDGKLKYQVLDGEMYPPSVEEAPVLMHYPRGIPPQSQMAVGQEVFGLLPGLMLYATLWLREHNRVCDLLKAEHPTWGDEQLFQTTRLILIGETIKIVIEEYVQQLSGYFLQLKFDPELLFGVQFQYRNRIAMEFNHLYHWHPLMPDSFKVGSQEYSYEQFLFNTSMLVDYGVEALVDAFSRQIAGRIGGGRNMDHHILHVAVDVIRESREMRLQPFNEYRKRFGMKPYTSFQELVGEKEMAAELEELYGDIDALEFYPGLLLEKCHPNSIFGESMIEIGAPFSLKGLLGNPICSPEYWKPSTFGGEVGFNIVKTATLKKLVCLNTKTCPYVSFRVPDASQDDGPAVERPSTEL
Sequence of Gamma-aminobutyric acid receptor subunit alpha-1 (P62813 whole entry): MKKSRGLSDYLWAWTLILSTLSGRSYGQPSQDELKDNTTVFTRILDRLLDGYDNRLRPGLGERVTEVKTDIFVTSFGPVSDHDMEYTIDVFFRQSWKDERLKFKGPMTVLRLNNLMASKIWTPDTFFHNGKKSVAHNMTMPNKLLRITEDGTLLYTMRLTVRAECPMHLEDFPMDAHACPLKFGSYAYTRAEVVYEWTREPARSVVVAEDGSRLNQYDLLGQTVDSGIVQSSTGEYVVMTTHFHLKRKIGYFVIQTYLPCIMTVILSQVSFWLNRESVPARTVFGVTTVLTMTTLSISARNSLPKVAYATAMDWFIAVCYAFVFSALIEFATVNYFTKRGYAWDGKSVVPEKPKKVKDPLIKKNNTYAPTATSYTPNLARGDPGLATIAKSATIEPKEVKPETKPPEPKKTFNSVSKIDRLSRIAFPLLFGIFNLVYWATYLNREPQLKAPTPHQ

AC50 [1] [µM] | Compound | AC50 [2] [µM] | AC50 (Histamine H1 receptor) [µM] | AC50 (Endothelin-1 receptor) [µM] | AC50 [3] [µM] | AC50 (Cannabinoid receptor 1) [µM] | AC50 (Progesterone receptor) [µM] | AC50 [4] [µM] | AC50 [5] [µM]
> 30 | CC(=O)NCCCS(=O)(=O)O [ACAMPROSATE] | > 30 | > 30 | > 30 |  | > 30 |  | > 30 | 
 | O=C(OCC(O)CO)c1ccccc1Nc1ccnc2cc(Cl)ccc12 (configuration not stated) [GLAFENINE] | > 30 | > 30 | > 30 | > 30 | > 30 | > 30 | > 30 | 4.63
 | COCCCN1CCC(NC(=O)c2cc(Cl)c(N)c3c2OCC3)CC1 [PRUCALOPRIDE] | > 30 | > 30 | > 30 | 6.1 | > 30 | > 30 | > 30 | > 30
> 10 | O=C1Nc2ccc(Cl)cc2[C@@](C#CC2CC2)(C(F)(F)F)O1 [EFAVIRENZ] | > 30 | > 30 | > 30 |  | > 30 |  | > 10 | 

Compound | AC50 [1] [µM] | AC50 [2] [µM] | AC50 (Histamine H1 receptor) [µM] | AC50 (Endothelin-1 receptor) [µM] | AC50 [3] [µM] | AC50 (Cannabinoid receptor 1) [µM] | AC50 (Progesterone receptor) [µM] | AC50 [4] [µM] | AC50 [5] [µM]
C=CCc1ccccc1OCC(O)CNC(C)C (configuration not stated) [ALPRENOLOL] | > 30 | > 30 | > 30 | > 30 | 0.0146 | > 30 | > 0.3 | 4.8 | > 0.3

— ChEMBL document CHEMBL5291721, “A preclinical secondary pharmacology resource illuminates target-adverse drug reaction associations of marketed drugs” (Nat Commun, 2023)
